This is an account of results in patent publication US9539260B2, “Dihydro-benzo-oxazine and dihydro-pyrido-oxazine derivatives” (Novartis AG, priority 2012, dated 2017).

Experiment [1] addresses PI3K alpha (Homo sapiens (Human), UniProt P42336). Nature of the experiment: Enzymatic PI3K alpha isoform inhibition (lipid kinase activity, Kinase-Glo luminescence). Format: biochemical. The settings on record: Enzymatic assay. A digest of the protocol:
(§1)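 ATP-depletion format: 10 nM PI3K with 5 μg/mL phosphatidylinositol and 2 μM ATP, run to ~50% ATP consumption, then Kinase-Glo added and remaining ATP read by luminescence after 5 min. IC50 from 4-parameter logistic fit, typically over 8 concentrations 10–0.003 μM.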
(In general: Kinase-Glo reads ATP consumption through a luciferase reaction.)

For experiment [2], the target named is PI3K delta (Homo sapiens (Human), UniProt O00329). Kind of experiment: Enzymatic PI3K delta isoform inhibition (lipid kinase activity, Kinase-Glo luminescence). The settings on record: Enzymatic assay. Format: biochemical. An outline of the steps:
as §1

Sequence of PI3K alpha (P42336 other isoform, or with tags, fused parts or gaps): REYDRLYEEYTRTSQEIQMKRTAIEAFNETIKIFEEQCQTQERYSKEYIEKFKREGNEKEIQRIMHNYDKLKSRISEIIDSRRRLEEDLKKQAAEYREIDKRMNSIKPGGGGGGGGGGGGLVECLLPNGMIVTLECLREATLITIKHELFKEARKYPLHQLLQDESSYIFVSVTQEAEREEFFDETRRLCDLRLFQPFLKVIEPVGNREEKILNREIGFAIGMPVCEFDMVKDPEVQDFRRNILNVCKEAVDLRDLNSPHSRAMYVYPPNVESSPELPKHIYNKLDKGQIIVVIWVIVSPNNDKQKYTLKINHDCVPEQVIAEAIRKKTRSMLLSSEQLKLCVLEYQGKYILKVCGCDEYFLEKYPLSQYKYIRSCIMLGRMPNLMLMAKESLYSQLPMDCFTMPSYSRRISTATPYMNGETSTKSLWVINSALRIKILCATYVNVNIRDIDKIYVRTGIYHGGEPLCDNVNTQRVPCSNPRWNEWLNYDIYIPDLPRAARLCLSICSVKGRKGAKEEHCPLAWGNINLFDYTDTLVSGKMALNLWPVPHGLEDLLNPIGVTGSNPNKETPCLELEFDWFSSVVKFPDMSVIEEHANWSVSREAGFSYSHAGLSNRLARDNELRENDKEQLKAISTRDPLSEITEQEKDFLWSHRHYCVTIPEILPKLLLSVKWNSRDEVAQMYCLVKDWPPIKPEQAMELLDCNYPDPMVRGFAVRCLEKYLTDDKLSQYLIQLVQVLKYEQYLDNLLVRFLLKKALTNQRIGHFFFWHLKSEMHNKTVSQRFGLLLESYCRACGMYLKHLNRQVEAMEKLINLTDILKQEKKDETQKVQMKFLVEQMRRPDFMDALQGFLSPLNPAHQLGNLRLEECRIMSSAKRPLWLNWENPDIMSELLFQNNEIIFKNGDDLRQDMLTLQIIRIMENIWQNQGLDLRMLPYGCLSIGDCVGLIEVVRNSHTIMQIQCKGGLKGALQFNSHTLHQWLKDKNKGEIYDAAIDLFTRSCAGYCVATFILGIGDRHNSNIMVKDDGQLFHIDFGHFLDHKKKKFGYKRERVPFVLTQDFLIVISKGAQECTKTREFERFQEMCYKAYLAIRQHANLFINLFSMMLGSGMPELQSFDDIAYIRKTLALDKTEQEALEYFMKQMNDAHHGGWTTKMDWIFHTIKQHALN
Sequence of PI3K delta (O00329 other isoform, or with tags, fused parts or gaps linker GGGGGG): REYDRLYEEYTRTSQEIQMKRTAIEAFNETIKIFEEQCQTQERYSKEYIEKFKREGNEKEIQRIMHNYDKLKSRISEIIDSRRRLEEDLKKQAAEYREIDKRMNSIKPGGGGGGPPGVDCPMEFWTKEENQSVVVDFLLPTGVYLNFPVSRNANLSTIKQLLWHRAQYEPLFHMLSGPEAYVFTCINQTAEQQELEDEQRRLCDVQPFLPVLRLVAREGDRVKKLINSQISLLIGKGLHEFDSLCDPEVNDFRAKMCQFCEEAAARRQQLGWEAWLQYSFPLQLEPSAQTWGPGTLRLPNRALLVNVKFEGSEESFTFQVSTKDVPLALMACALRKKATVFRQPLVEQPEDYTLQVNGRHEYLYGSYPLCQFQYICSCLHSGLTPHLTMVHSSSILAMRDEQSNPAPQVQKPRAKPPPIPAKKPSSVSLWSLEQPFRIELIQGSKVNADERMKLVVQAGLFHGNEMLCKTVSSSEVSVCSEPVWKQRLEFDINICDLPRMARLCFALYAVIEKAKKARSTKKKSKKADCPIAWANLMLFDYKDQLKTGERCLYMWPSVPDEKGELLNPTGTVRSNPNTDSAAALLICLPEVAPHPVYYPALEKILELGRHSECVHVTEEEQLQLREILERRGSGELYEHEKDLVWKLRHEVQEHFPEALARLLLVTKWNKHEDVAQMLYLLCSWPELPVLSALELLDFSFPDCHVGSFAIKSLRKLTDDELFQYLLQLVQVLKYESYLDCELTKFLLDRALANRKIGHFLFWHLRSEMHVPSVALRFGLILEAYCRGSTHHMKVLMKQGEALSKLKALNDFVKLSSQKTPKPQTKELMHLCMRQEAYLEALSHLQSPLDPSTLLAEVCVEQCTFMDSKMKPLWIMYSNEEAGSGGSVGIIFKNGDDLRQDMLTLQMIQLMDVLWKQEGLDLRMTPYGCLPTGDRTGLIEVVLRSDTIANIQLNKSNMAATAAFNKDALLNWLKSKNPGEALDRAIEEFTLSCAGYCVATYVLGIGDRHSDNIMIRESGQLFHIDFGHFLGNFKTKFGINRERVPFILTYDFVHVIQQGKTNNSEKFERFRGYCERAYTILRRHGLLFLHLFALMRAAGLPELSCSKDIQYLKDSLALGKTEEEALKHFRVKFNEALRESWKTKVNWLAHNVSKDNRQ

In general, IC50 refers to the midpoint of a concentration-inhibition curve. Lower therefore signals higher potency. Regarding `COc1ncc(N2CCOc3ccc(O[C@H]4CCN(C(=O)C5CCOC5)C4)cc32)cc1C` (stereo partly drawn) [Example B94, {(S)-3-[4-(6-Methoxy-5-methyl-pyridin-3-yl)-3,4-dihydro-2H-benzo[1,4]oxazin-6-yloxy]-pyrrolidin-1-yl}-(tetrahydro-furan-3-yl)-methanone], the IC50 in experiment [1] is 416 nM; in experiment [2], 5 nM.
The corresponding values for `COc1ncc(N2CCOc3ccc(O[C@H]4CCN(C(=O)c5ccc(=O)n(C)c5)C4)cc32)cc1C` [Example B95, 5-{(S)-3-[4-(6-Methoxy-5-methyl-pyridin-3-yl)-3,4-dihydro-2H-benzo[1,4]oxazin-6-yloxy]-pyrrolidine-1-carbonyl}-1-methyl-1H-pyridin-2-one] are 438 nM and 9 nM.
As to `CCC(=O)N1CC[C@H](Oc2ccc3c(c2)N(c2ccc(S(=O)(=O)CC)nc2)CCO3)C1` [Example B96, 1-{(S)-3-[4-(6-Ethanesulfonyl-pyridin-3-yl)-3,4-dihydro-2H-benzo[1,4]oxazin-6-yloxy]-pyrrolidin-1-yl}-propan-1-one], the values for the IC50 in experiment [1] and in experiment [2] were above 9100 nM and 118 nM, respectively.
Regarding `CCC(=O)N1CC[C@H](Oc2ccc3c(c2)N(c2cnc(S(C)(=O)=O)c(C)c2)CCO3)C1` [Example B97, 1-{(S)-3-[4-(6-Methanesulfonyl-5-methyl-pyridin-3-yl)-3,4-dihydro-2H-benzo[1,4]oxazin-6-yloxy]-pyrrolidin-1-yl}-propan-1-one], the results for the 50% inhibitory concentration (IC50) in experiment [1] and in experiment [2] were 476 nM and 21.5 nM, respectively.
The corresponding values for `COc1ncc(N2CCOc3ccc(O[C@H]4CCN(C(=O)C5CCOC5)C4)cc32)cc1F` (stereo partly drawn) [Example B98, {(S)-3-[4-(5-Fluoro-6-methoxy-pyridin-3-yl)-3,4-dihydro-2H-benzo[1,4]oxazin-6-yloxy]-pyrrolidin-1-yl}-(tetrahydro-furan-3-yl)-methanone] are 910 nM and 13 nM.
The corresponding values for `COCC(=O)N1CC[C@H](Oc2ccc3c(c2)N(c2cnc(OC)c(F)c2)CCO3)C1` [Example B99, 1-{(S)-3-[4-(5-Fluoro-6-methoxy-pyridin-3-yl)-3,4-dihydro-2H-benzo[1,4]oxazin-6-yloxy]-pyrrolidin-1-yl}-2-methoxy-ethanone] are 302 nM and 57 nM.
As for `COc1ncc(N2CCOc3ccc(O[C@H]4CCN(C(=O)c5cocn5)C4)cc32)cc1F` [Example B100, {(S)-3-[4-(5-Fluoro-6-methoxy-pyridin-3-yl)-3,4-dihydro-2H-benzo[1,4]oxazin-6-yloxy]-pyrrolidin-1-yl}-oxazol-4-yl-methanone], the 50% inhibitory concentration (IC50) worked out at 567 nM in experiment [1] and 14 nM in experiment [2].
Take `COc1ncc(N2CCOc3ccc(O[C@H]4CCN(C(=O)C5CCS(=O)(=O)C5)C4)cc32)cc1F` (stereo partly drawn) [Example B101, (1,1-Dioxo-tetrahydro-1lambda*6*-thiophen-3-yl)-{(S)-3-[4-(5-fluoro-6-methoxy-pyridin-3-yl)-3,4-dihydro-2H-benzo[1,4]oxazin-6-yloxy]-pyrrolidin-1-yl}-methanone]: the IC50 amounted to 471 nM in experiment [1] and 15 nM in experiment [2].
The corresponding values for `COc1ncc(N2CCOc3ccc(O[C@H]4CCN(C(=O)c5cnco5)C4)cc32)cc1F` [Example B103, {(S)-3-[4-(5-Fluoro-6-methoxy-pyridin-3-yl)-3,4-dihydro-2H-benzo[1,4]oxazin-6-yloxy]-pyrrolidin-1-yl}-oxazol-5-yl-methanone] are 241 nM and 46 nM.
The corresponding values for `COc1ncc(N2CCOc3ccc(O[C@H]4CCN(C(=O)c5cncnc5)C4)cc32)cc1F` [Example B104, {(S)-3-[4-(5-Fluoro-6-methoxy-pyridin-3-yl)-3,4-dihydro-2H-benzo[1,4]oxazin-6-yloxy]-pyrrolidin-1-yl}-pyrimidin-5-yl-methanone] are 1370 nM and 162 nM.
In the case of `COc1ncc(N2CCOc3ccc(O[C@H]4CCN(C(=O)C5CCS(=O)(=O)C5)C4)cc32)cc1Cl` (stereo partly drawn) [Example B105, {(S)-3-[4-(5-Chloro-6-methoxy-pyridin-3-yl)-3,4-dihydro-2H-benzo[1,4]oxazin-6-yloxy]-pyrrolidin-1-yl}-(1,1-dioxo-tetrahydro-1lambda*6*-thiophen-3-yl)-methanone], the concentration for half-maximal inhibition (IC50) in experiment [1] amounted to 762 nM; in experiment [2], 20 nM.
The corresponding values for `COc1ncc(N2CCOc3ccc(O[C@H]4CCN(C(=O)CCS(C)(=O)=O)C4)cc32)cc1Cl` [Example B106, 1-{(S)-3-[4-(5-Chloro-6-methoxy-pyridin-3-yl)-3,4-dihydro-2H-benzo[1,4]oxazin-6-yloxy]-pyrrolidin-1-yl}-3-methanesulfonyl-propan-1-one] are 247 nM and 17 nM.
On to `COc1ncc(N2CCOc3ccc(O[C@H]4CCN(C(=O)CCO)C4)cc32)cc1Cl` [Example B107, 1-{(S)-3-[4-(5-Chloro-6-methoxy-pyridin-3-yl)-3,4-dihydro-2H-benzo[1,4]oxazin-6-yloxy]-pyrrolidin-1-yl}-3-hydroxy-propan-1-one], for which the half-inhibitory concentration (IC50) worked out at 239 nM in experiment [1] and 4 nM in experiment [2].
In the case of `COc1ncc(N2CCOc3ccc(O[C@H]4CCN(C(=O)c5cnco5)C4)cc32)cc1Cl` [Example B108, {(S)-3-[4-(5-Chloro-6-methoxy-pyridin-3-yl)-3,4-dihydro-2H-benzo[1,4]oxazin-6-yloxy]-pyrrolidin-1-yl}-oxazol-5-yl-methanone], the results for the IC50 in experiment [1] and in experiment [2] were 94 nM and below 3 nM, respectively.
The corresponding values for `COc1ncc(N2CCOc3ccc(O[C@H]4CCN(C(=O)CC#N)C4)cc32)cc1Cl` [Example B109, 3-{(S)-3-[4-(5-Chloro-6-methoxy-pyridin-3-yl)-3,4-dihydro-2H-benzo[1,4]oxazin-6-yloxy]-pyrrolidin-1-yl}-3-oxo-propionitrile] are 118 nM and below 3 nM.
The corresponding values for `COc1ncc(N2CCOc3ccc(O[C@H]4CCN(C(=O)CS(C)(=O)=O)C4)cc32)cc1Cl` [Example B110, 1-{(S)-3-[4-(5-Chloro-6-methoxy-pyridin-3-yl)-3,4-dihydro-2H-benzo[1,4]oxazin-6-yloxy]-pyrrolidin-1-yl}-2-methanesulfonyl-ethanone] are 148 nM and 3 nM.
The corresponding values for `COc1ncc(N2CCOc3ccc(O[C@H]4CCN(C(=O)CS(C)(=O)=O)C4)cc32)cc1F` [Example B111, 1-{(S)-3-[4-(5-Fluoro-6-methoxy-pyridin-3-yl)-3,4-dihydro-2H-benzo[1,4]oxazin-6-yloxy]-pyrrolidin-1-yl}-2-methanesulfonyl-ethanone] are 685 nM and 60 nM.
For the compound `COc1ncc(N2CCOc3ccc(O[C@H]4CCN(C(=O)CCS(C)(=O)=O)C4)cc32)cc1F` [Example B112, 1-{(S)-3-[4-(5-Fluoro-6-methoxy-pyridin-3-yl)-3,4-dihydro-2H-benzo[1,4]oxazin-6-yloxy]-pyrrolidin-1-yl}-3-methanesulfonyl-propan-1-one], the concentration for half-maximal inhibition (IC50) in experiment [1] turned out to be 380 nM; in experiment [2], 26 nM.
The corresponding values for `COc1ncc(N2CCOc3ccc(O[C@H]4CCN(C(=O)CCO)C4)cc32)cc1F` [Example B113, 1-{(S)-3-[4-(5-Fluoro-6-methoxy-pyridin-3-yl)-3,4-dihydro-2H-benzo[1,4]oxazin-6-yloxy]-pyrrolidin-1-yl}-3-hydroxy-propan-1-one] are 2730 nM and 109 nM.
The corresponding values for `COCCC(=O)N1CC[C@H](Oc2ccc3c(c2)N(c2cnc(OC)c(F)c2)CCO3)C1` [Example B114, 1-{(S)-3-[4-(5-Fluoro-6-methoxy-pyridin-3-yl)-3,4-dihydro-2H-benzo[1,4]oxazin-6-yloxy]-pyrrolidin-1-yl}-3-methoxy-propan-1-one] are 1440 nM and 71 nM.
The corresponding values for `COc1ncc(N2CCOc3ccc(O[C@H]4CCN(C(=O)CC#N)C4)cc32)cc1F` [Example B116, 3-{(S)-3-[4-(5-Fluoro-6-methoxy-pyridin-3-yl)-3,4-dihydro-2H-benzo[1,4]oxazin-6-yloxy]-pyrrolidin-1-yl}-3-oxo-propionitrile] are 304 nM and 22 nM.
In the case of `COc1ncc(N2CCOc3ccc(O[C@H]4CCN(C(=O)[C@H]5CC[C@H](O)CC5)C4)cc32)cc1F` [Example B117, {(S)-3-[4-(5-Fluoro-6-methoxy-pyridin-3-yl)-3,4-dihydro-2H-benzo[1,4]oxazin-6-yloxy]-pyrrolidin-1-yl}-(4-hydroxy-cyclohexyl)-methanone], the values for the half-maximal inhibitory concentration (IC50) in experiment [1] and in experiment [2] were 1210 nM and 8 nM, respectively.
The corresponding values for `COc1ncc(N2CCOc3ccc(O[C@H]4CCN(C(=O)[C@H]5CC[C@@H](O)CC5)C4)cc32)cc1F` [Example B118, {(S)-3-[4-(5-Fluoro-6-methoxy-pyridin-3-yl)-3,4-dihydro-2H-benzo[1,4]oxazin-6-yloxy]-pyrrolidin-1-yl}-(4-hydroxy-cyclohexyl)-methanone] are 498 nM and 10 nM.
The corresponding values for `COc1ncc(N2CCOc3ccc(O[C@H]4CCN(C(=O)C5CCS(=O)(=O)CC5)C4)cc32)cc1C(F)F` [Example B119, {(S)-3-[4-(5-Difluoromethyl-6-methoxy-pyridin-3-yl)-3,4-dihydro-2H-benzo[1,4]oxazin-6-yloxy]-pyrrolidin-1-yl}-(1,1-dioxo-hexahydro-6-thiopyran-4-yl)-methanone] are 124 nM and 6 nM.
The corresponding values for `COc1ncc(N2CCOc3ccc(O[C@H]4CCN(C(=O)C5CCOCC5)C4)cc32)cc1C(F)F` [Example B120, {(S)-3-[4-(5-Difluoromethyl-6-methoxy-pyridin-3-yl)-3,4-dihydro-2H-benzo[1,4]oxazin-6-yloxy]-pyrrolidin-1-yl}-(tetrahydro-pyran-4-yl)-methanone] are 88 nM and 6 nM.
